The target of one assay is Jak3 (Homo sapiens, UniProt P52333). Kind of assay: Kinase assay (LANCE Ultra TR-FRET), Jak3. The assay is classed as biochemical. The protocol: (§1) Kinase assays were conducted in 384-well plates using LANCE ultra 66 time-resolved fluorescence resonance energy transfer (TR-FRET) methods, according to the manufacturer’s instructions (Perkin-Elmer). In brief, each kinase was pre-incubated with a serially diluted compound for 30 min, incubated with ULight poly-GT peptide substrate and ATP for up to 1 h. Thirty minutes after adding Eu-labeled anti-phosphopeptides Ab diluted in LANCE Detection Buffer, LANCE signals were measured with an EnVision multilabel reader (Perkin-Elmer).

A further assay deals with RET (Homo sapiens, UniProt P07949). Kind of assay: Kinase assay (LANCE Ultra TR-FRET), RET. The format is biochemical. The procedure:
as §1
(In general: TR-FRET usually uses a lanthanide donor and a delayed reading to cut background.)

Another assay relates to KOR. Kind of assay: Kinase assay (LANCE Ultra TR-FRET), KOR. The format is biochemical. The protocol:
as §1

Assay [1] concerns the target T1, phosphorylated Syk (p-Syk) in Ramos cells (Homo sapiens, UniProt P43405).
T1 construct: endogenous in cells; host or cells: Ramos (ATCC), THP-1 (ATCC), human CD14+ monocytes (Lonza)
Kind of assay: p-Syk ELISA in anti-IgM-stimulated Ramos cells (BCR signal). The format is cell-based. The protocol: THP-1 and Ramos cell lines and human CD14^+ monocytes were purchased from the American Type Culture Collection (ATCC) and Lonza, respectively. After treatment with Syk inhibitors for 1 h, THP-1 cells and monocytes were stimulated for 15 min with 100 μg/ml human IgG (Invitrogen), and Ramos cells were stimulated with 2 μg/ml anti-human IgM monoclonal Ab (mAb) (Bathyl). Cells were lysed in RIPA buffer containing 1% NP-40, 1% sodium deoxycholate, 0.1% SDS, and a mixture of protease and phosphatase inhibitors (Thermo Scientific). The lysates were assayed by standard immunoblotting methods and ELISA. Primary Abs used for immunoblotting were anti-phospho-Syk ([…]), anti-phospho-Vav (Y174), anti-phospho-PLCγ1 (Y1217) and anti-phospho-BLNK (Y96) Abs (all from Cell Signaling). ELISAs to detect phospho-Syk (Y525/526) were performed according to the manufacturer’s protocol (Cell Signaling).
Ramos cells (A), human primary monocytes (B), and THP cells (C) were pretreated with inhibitors at the indicated concentrations and stimulated with anti-human IgM (A) and human IgG (B and C). […] The relative intensities of protein phosphorylation levels were quantitated with reference to each lane of β-actin control bands. (D) Ramos cells, human primary monocytes, and THP cells were treated as in A–C for 24 h and levels of phosphorylated Syk (p-Syk) were measured by ELISA.
On the technique in general: In an ELISA, binding on a coated surface is turned into a signal by an enzyme label.

The test system of the next assay is human primary B cells. Kind of assay: IgM, IgG and IL-6 secretion by stimulated human primary B cells (ELISA). The assay is classed as cell-based. As to conditions: TLR9 agonist plus IL-2 or IFN-α; efficacy comparable to R406. The procedure: Human CD19^+ B cells (Lonza) were pre-treated with inhibitors for 1 h and stimulated for 24 h with 50 nM CpG ODN 2006 plus 10 ng/ml IL-2 or 1 μM CpG ODN 2006 plus 20 ng/ml IFN-α. Culture supernatants were assayed by ELISA to detect secreted IgG, IgM, and IL-6, according to the manufacturer’s instructions.
(§2) Figure 2: in vitro effects of SKI-O -703 on the proliferation, survival, and differentiation of B cells. Mouse primary B cells were labeled with CP670, and stimulated with either anti-IgM mAb, CD40L and IL-4 (A) or LPS (B) for 72 h in the presence or absence of SKI-O-703 and tofacitinib at the indicated concentrations; they were then assayed by FACS. (C and D) Mouse primary B cells were cultured as in A and B for 24 h, stained with Annexin V and 7-AAD, and assayed by FACS. Representative FACS profiles and graphs displaying mean Annexin V-positivity are shown. (E) Human primary B cells were stimulated with CpG ODN plus IL-2 (to detect IgM and IgG) or CpG ODN 2006 plus IFN-α (to detect IL-6) in the presence or absence of inhibitors. The culture supernatants were assayed by ELISA. Graphs are expressed as % positivity relative to the controls (without inhibitor). The data are representative of 2–3 independent experiments. *P < 0.05, **P < 0.01, and ***P < 0.001, compared with vehicle control by two-tailed unpaired Students t-tests.

The target of assay [2] is T2, phosphorylation of Syk in mouse primary B cells (Mus musculus, UniProt P48025).
T2 construct: endogenous in cells; host or cells: mouse primary B cells (splenic CD19+ B cells of C57BL/6 mice)
Kind of assay: p-Syk by FACS in stimulated mouse primary B cells. The format is cell-based. The following applies: BCR and CD40 stimulation. An excerpt: Figure 1: in vitro inhibitory effects of SKI-O-592 and -703 on Syk in B cells and monocytes. Ramos cells (A), human primary monocytes (B), and THP cells (C) were pretreated with inhibitors at the indicated concentrations and stimulated with anti-human IgM (A) and human IgG (B and C). The cells were then lysed and assayed by immunoblotting methods. The relative intensities of protein phosphorylation levels were quantitated with reference to each lane of β-actin control bands. (D) Ramos cells, human primary monocytes, and THP cells were treated as in A–C for 24 h and levels of phosphorylated Syk (p-Syk) were measured by ELISA. (E) Mouse primary B cells were stimulated with anti-IgM mAb for 60 min in the presence or absence of SKI-O-703 and assayed for p-Syk by FACS. A representative FACS profile and data on the dose-response of mean fluorescence intensity (MFI) are shown. The data are representative of two independent experiments.

A further assay has as its system mouse primary B cells. Kind of assay: CP670-dilution proliferation assay, LPS-stimulated B cells. The format is cell-based. The following applies: 72 h. The protocol: Splenic CD19^+ B cells from C57BL/6 mice were sorted by MACS (Milteny Biotec), stained with 3 μM cell proliferation dye eFluor 670 (CP670; eBioscience), and cultured for 72 h in the presence of either 10 μg/ml LPS (Sigma Aldrich) or 5 μg/ml anti-mouse IgM (Jackson Immuno Research Laboratories), 10 μg/ml anti-CD40 mAb (Biolegend) and 10 ng/ml IL-4 (Peprotech), and assayed by FACS. To detect apoptotic cells, unstimulated cells were cultured for 24 h, stained with Annexin V and 7-aminoactinomycin D (7-AAD), and assayed by FACS.
as §2, with “The data are representative of 2–3 independent experiments. *P < 0.05, **P < 0.01, and ***P < 0.001, compared with vehicle control by two-tailed unpaired Students t-tests.” left out

pIC50: −log10 of the molar value.

Sequence of Jak3 (P52333 whole entry, species assumed): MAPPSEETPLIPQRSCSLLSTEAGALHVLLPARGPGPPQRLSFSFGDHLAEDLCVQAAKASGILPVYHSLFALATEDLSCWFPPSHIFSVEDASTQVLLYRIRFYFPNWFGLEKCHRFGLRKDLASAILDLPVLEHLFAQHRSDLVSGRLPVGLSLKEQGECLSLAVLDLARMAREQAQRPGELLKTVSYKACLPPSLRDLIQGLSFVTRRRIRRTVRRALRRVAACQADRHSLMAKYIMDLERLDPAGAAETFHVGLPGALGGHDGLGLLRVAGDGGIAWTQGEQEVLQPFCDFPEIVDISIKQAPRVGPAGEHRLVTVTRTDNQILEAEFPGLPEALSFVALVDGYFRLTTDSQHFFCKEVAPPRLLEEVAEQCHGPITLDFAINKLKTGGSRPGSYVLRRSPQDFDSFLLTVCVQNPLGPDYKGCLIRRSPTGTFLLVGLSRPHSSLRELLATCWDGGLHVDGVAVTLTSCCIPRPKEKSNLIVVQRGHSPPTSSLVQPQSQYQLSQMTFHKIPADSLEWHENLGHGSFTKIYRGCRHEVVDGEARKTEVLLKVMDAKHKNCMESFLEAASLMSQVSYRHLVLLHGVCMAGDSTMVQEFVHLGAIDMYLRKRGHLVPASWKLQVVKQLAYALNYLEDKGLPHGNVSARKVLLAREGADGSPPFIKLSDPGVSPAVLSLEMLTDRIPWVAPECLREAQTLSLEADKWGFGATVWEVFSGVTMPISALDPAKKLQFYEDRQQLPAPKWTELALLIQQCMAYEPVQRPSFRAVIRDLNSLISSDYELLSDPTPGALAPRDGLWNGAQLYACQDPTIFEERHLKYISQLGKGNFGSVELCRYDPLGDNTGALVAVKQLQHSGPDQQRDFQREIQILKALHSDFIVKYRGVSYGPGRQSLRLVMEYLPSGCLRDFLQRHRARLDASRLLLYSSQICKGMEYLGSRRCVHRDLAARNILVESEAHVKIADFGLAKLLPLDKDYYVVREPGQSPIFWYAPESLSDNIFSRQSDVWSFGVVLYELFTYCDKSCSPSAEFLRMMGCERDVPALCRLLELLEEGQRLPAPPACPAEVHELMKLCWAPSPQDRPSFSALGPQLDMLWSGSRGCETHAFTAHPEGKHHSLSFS
Sequence of RET (P07949 29-1114, species assumed): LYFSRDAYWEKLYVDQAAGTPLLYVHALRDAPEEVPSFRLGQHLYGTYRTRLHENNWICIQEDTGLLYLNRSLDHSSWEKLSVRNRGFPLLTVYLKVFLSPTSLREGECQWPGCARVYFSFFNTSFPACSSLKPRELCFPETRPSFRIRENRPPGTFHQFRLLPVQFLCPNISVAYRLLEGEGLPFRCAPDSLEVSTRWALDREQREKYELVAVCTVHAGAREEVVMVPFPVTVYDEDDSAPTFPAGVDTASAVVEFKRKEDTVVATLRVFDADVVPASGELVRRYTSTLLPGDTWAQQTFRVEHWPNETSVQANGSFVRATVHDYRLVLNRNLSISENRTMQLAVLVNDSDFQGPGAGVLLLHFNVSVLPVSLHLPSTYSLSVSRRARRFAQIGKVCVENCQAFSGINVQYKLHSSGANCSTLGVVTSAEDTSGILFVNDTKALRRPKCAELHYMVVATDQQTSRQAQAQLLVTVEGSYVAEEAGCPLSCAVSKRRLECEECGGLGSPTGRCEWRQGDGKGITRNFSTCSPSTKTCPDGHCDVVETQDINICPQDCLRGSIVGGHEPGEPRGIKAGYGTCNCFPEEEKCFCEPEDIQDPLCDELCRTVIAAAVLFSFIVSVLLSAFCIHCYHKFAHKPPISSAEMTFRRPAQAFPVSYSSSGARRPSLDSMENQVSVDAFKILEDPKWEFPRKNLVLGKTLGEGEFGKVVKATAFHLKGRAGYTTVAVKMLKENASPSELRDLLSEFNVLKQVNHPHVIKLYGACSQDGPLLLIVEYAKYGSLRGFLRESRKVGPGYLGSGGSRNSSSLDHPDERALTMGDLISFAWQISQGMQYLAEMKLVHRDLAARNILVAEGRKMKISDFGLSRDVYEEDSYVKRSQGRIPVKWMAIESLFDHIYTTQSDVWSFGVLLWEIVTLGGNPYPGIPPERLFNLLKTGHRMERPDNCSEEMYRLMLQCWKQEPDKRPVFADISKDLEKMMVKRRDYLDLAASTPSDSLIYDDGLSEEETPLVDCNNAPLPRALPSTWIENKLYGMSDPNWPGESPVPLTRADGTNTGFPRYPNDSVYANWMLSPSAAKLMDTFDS
T2 sequence (P48025 whole entry): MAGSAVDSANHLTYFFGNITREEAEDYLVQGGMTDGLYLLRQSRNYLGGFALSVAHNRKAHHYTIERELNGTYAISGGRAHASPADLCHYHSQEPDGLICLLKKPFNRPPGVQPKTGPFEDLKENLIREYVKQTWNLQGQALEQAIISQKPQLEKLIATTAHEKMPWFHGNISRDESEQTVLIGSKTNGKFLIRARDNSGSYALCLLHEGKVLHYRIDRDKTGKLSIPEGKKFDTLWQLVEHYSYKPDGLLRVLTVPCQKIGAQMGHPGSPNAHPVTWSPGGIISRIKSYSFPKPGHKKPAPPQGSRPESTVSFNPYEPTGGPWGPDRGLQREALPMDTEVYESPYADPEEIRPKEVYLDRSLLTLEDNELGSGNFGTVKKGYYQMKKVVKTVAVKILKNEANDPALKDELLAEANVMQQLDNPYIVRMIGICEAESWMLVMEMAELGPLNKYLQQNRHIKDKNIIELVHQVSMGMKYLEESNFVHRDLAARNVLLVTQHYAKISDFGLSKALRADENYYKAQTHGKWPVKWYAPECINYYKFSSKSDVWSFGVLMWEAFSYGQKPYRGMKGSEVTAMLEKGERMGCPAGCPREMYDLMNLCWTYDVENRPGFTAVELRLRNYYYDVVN

For `Cc1nn(-c2ccnc(Nc3ccc4c(c3)c(C(=O)C3CC3)cn4C)n2)cc1CN1C[C@H](O)CO1` [SKI-O-592], the “Ratio to Syk (Jak3)” value on Jak3 (IC50 ratio to Syk) is listed as 943. Moreover, the pIC50 is 5.24 against Jak3 (kinase activity, TR-FRET); 6.39 at RET (kinase activity, TR-FRET); 6.16 against KOR (kinase activity, TR-FRET); 6.55 in assay [1]. For the same compound, the “Ratio to Syk (RET)” value on RET (IC50 ratio to Syk) stood at 67. Further, the “Ratio to Syk (KOR)” value in the assay with KOR (IC50 ratio to Syk) was 111. In the assay on human primary B cells, the “Production of IgM, IgG and IL-6” value was “inhibited the production of IgM, IgG, and IL-6”.
Take `CS(=O)(=O)O.CS(=O)(=O)O.Cc1nn(-c2ccnc(Nc3ccc4c(c3)c(C(=O)C3CC3)cn4C)n2)cc1CN1C[C@H](O)CO1` [SKI-O-703, (S)-cyclopropyl(5-((4-(4-((4-hydroxyisoxazolidin-2-yl)methyl)-3-methyl-1H-pyrazol-1-yl)pyrimidin-2-yl)amino)-1-methyl-1H-indol-3-yl)methanone dimesylate]: the “Phosphorylation of Syk in mouse primary B cells” value in assay [2] was “reduced the phosphorylation of Syk”. Also, the “Concentration required to significantly inhibit LPS-induced proliferation” value with mouse primary B cells was “at least 5 μM”.

What is called pIC50 is the negative decadic logarithm of the IC50, by convention in mol/L.

Values taken from article PMC9993459, “A novel selective spleen tyrosine kinase inhibitor SKI-O-703 (cevidoplenib) ameliorates lupus nephritis and serum-induced arthritis in murine models” (Clinical and Experimental Immunology, 2022).
